{"source": "patent US9321785B2", "about": "“Methods for the treatment or prophylaxis of thrombosis or embolism” (IPCA Laboratories Limited, priority 2010, dated 2016)", "key": {"[1]": {"settings": "cited from earlier work"}, "[2]": {"tested_on": "ADP induced platelet aggregation", "settings": "cited from earlier work; for Time until 50% inhibition of ADP induced platelet aggregation is reached: 5 μM ADP ex vivo, LTA"}, "[3]": {"tested_on": "recurrent ischemic events / major bleeding events", "settings": "cited from earlier work"}, "[4]": {"settings": "rat; cited from earlier work"}, "[5]": {"assay": "Activity of clopidogrel metabolite", "settings": "metabolite in the clopidogrel pathway", "text": "Thus, the influence that the patient's ability to metabolize has on efficacy is reduced."}, "[6]": {"tested_on": "ADP induced platelet aggregation (platelet-rich plasma)", "assay": "Measurement of platelet aggregation with ADP, ex vivo after oral administration", "format": "in vivo, rat", "settings": "2 h before sampling, ADP 2.5 μM", "experimental": "The platelet aggregation inhibiting activities and the antithrombotic activities of the compounds were studied in the rat by standard methods. The activity on the aggregation of plates induced by ADP or collagen was determined ex-vivo. […] The aggregating solutions used were: a 500 μM aqueous solution of ADP (final concentration 2.5 μM). The aggregation of the platelets was monitored as described by Born (Nature 194, p. 927 […]), which is incorporated herein by reference, using a Coultronics® aggregometer at a temperature of 37° C. and agitation of 900 rpm. For aggregation with ADP, the aggregometer generates a curve representing a platelet aggregation as measured by a change in optical density. The height of this curve is defined as the height of aggregation. […] The controls are without drug."}, "[7]": {"tested_on": "venous thrombus in vena cava", "assay": "Venous thrombosis on a screw thread (antithrombotic activity)", "format": "in vivo, rat", "settings": "for % inhibition / Weight of thrombus: thrombus after 5 h", "text": "The antithrombotic activity has also been studied in the test of venous thrombosis on a screw thread described by Kumada T. et al. in Thromb. Res 18 p. 189 (1980). Female rats of the same type as those previously described, in groups of 10 animals, were anesthetized with diethyl ether and their vena cava was isolated after abdominal incision. […] The thrombi formed rapidly and five hours later, under pentobarbital anesthesia, the abdomen is reopened and ligatures are placed above and below the screw thread which is withdrawn after longitudinal incision of the vein and the isolated thrombus is weighed. […] The control is without drug."}, "[8]": {"settings": "combined with Aspirin therapy, patients with ACS"}, "[9]": {"settings": "patients at high risk of vascular events"}}, "note": "Read-outs that look alike come from different tables or passages of the source."}
{"smiles": "COC(=O)[C@H](c1ccccc1Cl)N1CCc2sccc2C1", "note": "[Clopidogrel, (+)-(S)-methyl 2-(2-chlorophenyl)-2-(6,7-dihydrothieno[3,2-c]pyridin-5(4H)-yl)acetate]", "values": [{"measurement": "Fraction converted to clopidogrel acid in vivo", "setting": "[1]", "result": 90, "unit": "%"}, {"measurement": "Time until 50% inhibition of ADP induced platelet aggregation is reached", "setting": "[2]; dose 600 mg", "result": 2, "unit": "h"}, {"measurement": "Inhibition of ADP induced platelet aggregation", "setting": "[2]; dose 900 mg, 5 μM ADP", "result": 60, "unit": "%"}, {"measurement": "Inhibition of platelet aggregation", "setting": "[2]; dose 900 mg, 20 μM ADP ex vivo", "result": "less than 50%"}, {"measurement": "Time until 50% inhibition of ADP induced platelet aggregation is reached", "setting": "[2]; loading dose 300 mg", "result": "4 to 6", "unit": "h"}, {"measurement": "Absolute risk reduction (ARR), recurrent ischemic events", "setting": "[3]; [8]", "result": "about 2.1%"}, {"measurement": "Further reduction of the risk of recurrent ischemic events", "setting": "[3]; [8]", "result": 20, "unit": "%"}, {"measurement": "Lethal dose", "setting": "[4]", "result": "about 5000 mg per kg"}]}
{"smiles": "O=C(O)[C@H](c1ccccc1Cl)N1CCc2sccc2C1", "note": "[Formula IV]", "values": [{"measurement": "Activity of the metabolite", "setting": "[5]", "result": "inactive"}]}
{"smiles": "COC(=O)[C@H](c1ccccc1Cl)N1CCC2SC(=O)C=C2C1", "note": "(stereo partly drawn) [Thiolactone, Methyl(S)-2(2-chlorophenyl)-2-(2,4,5,6,7,7a-hexahydrothieno[3,2-c]-5-pyridin-2-one)acetate]", "values": [{"measurement": "inhibition at 2.5 mg/kg", "setting": "[6]; Rattus norvegicus, Platelet, oral dose 2.5 mg/kg (base 2.5 mg/kg)", "result": 95, "unit": "%"}, {"measurement": "% aggregation (height)", "setting": "[6]; oral dose 2.5 mg/kg (base 2.5 mg/kg), control 94 ± 1", "result": "4 ± 2", "unit": "%"}, {"measurement": "Antithrombotic activity compared with clopidogrel", "setting": "[7]; Table 2", "result": "superior to clopidogrel"}, {"measurement": "% inhibition", "setting": "[7]; dose 12.5 mg/kg (base 12.5 mg/kg)", "result": 76, "unit": "%"}, {"measurement": "Weight of thrombus", "setting": "[7]; dose 12.5 mg/kg (base 12.5 mg/kg), control 4.18 ± 0.31", "result": "1.18 ± 0.18", "unit": "mg"}]}
{"smiles": "COC(=O)[C@H](c1ccccc1Cl)N1CCc2sccc2C1", "note": "[Clopidogrel bisulphate]", "values": [{"measurement": "inhibition at 12.5 mg/kg", "setting": "[6]; Rattus norvegicus, Platelet, oral dose 12.5 mg/kg (base 9.813 mg/kg)", "result": 82, "unit": "%"}, {"measurement": "inhibition at 25 mg/kg", "setting": "[6]; Rattus norvegicus, Platelet, oral dose 25 mg/kg (base 19.225 mg/kg)", "result": 89, "unit": "%"}, {"measurement": "% aggregation (height)", "setting": "[6]; oral dose 12.5 mg/kg (base 9.813 mg/kg), control 103 ± 3", "result": "19 ± 4", "unit": "%"}, {"measurement": "% aggregation (height)", "setting": "[6]; oral dose 25 mg/kg (base 19.225 mg/kg), control 103 ± 3", "result": "11 ± 1", "unit": "%"}, {"measurement": "% inhibition", "setting": "[7]; dose 10 mg/kg (base 7.69 mg/kg)", "result": 67, "unit": "%"}, {"measurement": "Weight of thrombus", "setting": "[7]; dose 10 mg/kg (base 7.69 mg/kg), control 3.9 ± 0.3", "result": "1.26 ± 0.19", "unit": "mg"}, {"measurement": "% inhibition", "setting": "[7]; dose 20 mg/kg (base 15.38 mg/kg)", "result": 69, "unit": "%"}, {"measurement": "Weight of thrombus", "setting": "[7]; dose 20 mg/kg (base 15.38 mg/kg), control 3.9 ± 0.3", "result": "1.20 ± 0.13", "unit": "mg"}]}
{"smiles": "CC(=O)Oc1ccccc1C(=O)O", "note": "[Aspirin]", "values": [{"measurement": "Absolute risk increase (ARI), major bleeding events", "setting": "[3]; [9]", "result": "about 0.5%"}, {"measurement": "Absolute risk reduction (ARR), recurrent ischemic events", "setting": "[3]; [9]", "result": "about 2%"}, {"measurement": "Increase in the odds of major bleeding events", "setting": "[3]; [9]", "result": "about 60%"}, {"measurement": "Reduction of the risk of recurrent ischemic events", "setting": "[3]; [9]", "result": 22, "unit": "%"}]}
